O=C(O)c1ccc(Br)cn1
solubility (mole fraction)
Conditions	in 1,4-dioxane	in THF	in acetonitrile	in ethanol	in ethyl acetate	in isopropanol	in methanol	in methyl acetate	in n-butanol	in n-propanol
278.15 K	–	0.0326	0.00178	0.00865	0.00491	0.0089	0.00787	0.00916	0.0119	0.0102
283.15 K	–	0.0374	0.00219	0.0103	0.00583	0.0107	0.00924	0.0104	0.014	0.0126
288.15 K	0.0326	0.0426	0.00266	0.0122	0.00674	0.0128	0.0107	0.0117	0.0163	0.0152
293.15 K	0.0378	0.0478	0.0032	0.0144	0.00802	0.0152	0.0124	0.0131	0.0189	0.0182
298.15 K	0.0435	0.0543	0.00381	0.0175	0.00937	0.018	0.0145	0.0147	0.0218	0.0216
303.15 K	0.0502	0.0611	0.00449	0.0209	0.011	0.0213	0.017	0.0164	0.0249	0.0254
308.15 K	0.0574	0.0663	0.00524	0.0241	0.0126	0.025	0.0196	0.0182	0.0283	0.0296
313.15 K	0.0656	0.0742	0.00607	0.028	0.0144	0.0292	0.0229	0.0201	0.0319	0.0342
318.15 K	0.0744	0.0803	0.00698	0.0323	0.0165	0.034	0.0271	0.0221	0.0358	0.0391
323.15 K	0.0831	0.0886	0.00797	0.0379	0.0186	0.0394	0.0315	0.0244	0.0399	0.0445

— BigSolDB 2.1
